Experimental data: patent US11180487B2, “Substituted cyanoindoline derivatives as NIK inhibitors” (Janssen Pharmaceutica NV, priority 2016, dated 2021)
Where two headings read alike, the source gives them in different places.

Columns and labels:
[1] = system: KMS12-BM (NIK WT) multiple myeloma cells; assay: Antiproliferative activity on KMS12-BM multiple myeloma cells (CellTiter-Glo, 96 hr), Biological Assay C; type: cell-based, human; conditions: averaged values, read-out: KMS-12 Proliferation inhibition (IC50 (nM))
Procedure: (§1) Determination of Antiproliferative Activity on JJN-3 (NIK Translocated) and KMS12-BM (NIK WT) Multiple Myeloma Cells
(§2) All compounds tested were dissolved in DMSO and further dilutions were made in culture medium. Final DMSO concentration was 0.3% (v/v) in cell proliferation assays. Viability was assessed using CellTiter-Glo cell viability assay kit (Promega). The human JJN-3 and KMS12-BM cells (DSMZ) were cultured in RPMI 1640 medium supplemented with 2 mM L-glutamine, and 10% fetal calf serum (PAA). Cells were routinely kept as suspension cells at 37° C. in a humidified 5% CO2 atmosphere. Cells were passaged at a seeding density of 0.2×10^6/ml twice a week. Cells were seeded in black tissue culture treated 96-well plates (Perkin Elmer). Densities used for plating ranged from 15000 (JJN3) to 20000 (KMS12BM) cells per well in a total volume of 135 μl medium. Drugs and/or solvents were added (15 μl) to a final volume of 150 μl. Following 96 hr of treatment, plates were removed from the incubator and allowed to equilibrate to room temperature for approx 10 min. 75 μl CellTiter-Glo reagent was added to each well that was then covered (Perkin Elmer Topseal) and shaken on plate shaker for 10 min. Luminescence was measured on a HTS Topcount (Perkin Elmer).
(§3) Within an experiment, the results for each treatment were the mean of 2 replicate wells. For initial screening purposes, compounds were tested using a 9 point dilution curve (serial 1:3 dilutions). For each experiment, controls (containing no drug) and a blank incubation (containing cells read at the time of compound addition) were run in parallel. The blank value was subtracted from all control and sample values. For each sample, the mean value for cell growth (in relative light units) was expressed as a percentage of the mean value for cell growth of the control.

[2] = target: recombinant human NF-kappaB-inducing kinase (NIK/MAP3K14) (Homo sapiens, UniProt Q99558); assay: Inhibition of auto-phosphorylation of recombinant human NIK/MAP3K14 activity (AlphaScreen), Biological Assay A; type: biochemical; conditions: averaged values over all measurements on all batches
Procedure: Inhibition of Auto-Phosphorylation of Recombinant Human NF-kappaB-Inducing Kinase (NIK/MAP3K14) Activity (AlphaScreen®)
NIK/MAP3K14 auto-phosphorylation activity was measured using the AlphaScreen® (αscreen) format (Perkin Elmer). All compounds tested were dissolved in dimethyl sulfoxide (DMSO) and further dilutions were made in assay buffer. Final DMSO concentration was 1% (v/v) in assays. Assay buffer was 50 mM Tris pH 7.5 containing 1 mM EGTA (ethylene glycol tetraacetic acid), 1 mM DTT (dithiothreitol), 0.1 mM Na3VO4, 5 mM MgCl2, 0.01% Tween® 20. Assays were carried out in 384 well Alphaplates (Perkin Elmer). Incubations consisted of compound, 25 microM Adenosine-5′-triphosphate (ATP), and 0.2 nM NIK/MAP3K14. Incubations were initiated by addition of GST-tagged NIK/MAP3K14 enzyme, carried out for 1 h at 25° C. and terminated by addition of stop buffer containing anti-phospho-IKK Ser176/180 antibody. Protein A Acceptor and Glutathione-Donor beads were added before reading using an EnVision® Multilabel Plate Reader (Perkin Elmer). Signal obtained in the wells containing blank samples was subtracted from all other wells and IC50's were determined by fitting a sigmoidal curve to % inhibition of control versus Log10 compound concentration.

[3] = system: JJN-3 (NIK translocated) multiple myeloma cells; assay: Antiproliferative activity on JJN-3 multiple myeloma cells (CellTiter-Glo, 96 hr), Biological Assay C; type: cell-based, human; conditions: JJN-3 (NIK translocated) cells, averaged values, read-out: JJN-3 Proliferation inhibition (IC50 (nM))
Procedure: as §1, §2, §3

Sequence of recombinant human NF-kappaB-inducing kinase (NIK/MAP3K14) (Q99558 whole entry): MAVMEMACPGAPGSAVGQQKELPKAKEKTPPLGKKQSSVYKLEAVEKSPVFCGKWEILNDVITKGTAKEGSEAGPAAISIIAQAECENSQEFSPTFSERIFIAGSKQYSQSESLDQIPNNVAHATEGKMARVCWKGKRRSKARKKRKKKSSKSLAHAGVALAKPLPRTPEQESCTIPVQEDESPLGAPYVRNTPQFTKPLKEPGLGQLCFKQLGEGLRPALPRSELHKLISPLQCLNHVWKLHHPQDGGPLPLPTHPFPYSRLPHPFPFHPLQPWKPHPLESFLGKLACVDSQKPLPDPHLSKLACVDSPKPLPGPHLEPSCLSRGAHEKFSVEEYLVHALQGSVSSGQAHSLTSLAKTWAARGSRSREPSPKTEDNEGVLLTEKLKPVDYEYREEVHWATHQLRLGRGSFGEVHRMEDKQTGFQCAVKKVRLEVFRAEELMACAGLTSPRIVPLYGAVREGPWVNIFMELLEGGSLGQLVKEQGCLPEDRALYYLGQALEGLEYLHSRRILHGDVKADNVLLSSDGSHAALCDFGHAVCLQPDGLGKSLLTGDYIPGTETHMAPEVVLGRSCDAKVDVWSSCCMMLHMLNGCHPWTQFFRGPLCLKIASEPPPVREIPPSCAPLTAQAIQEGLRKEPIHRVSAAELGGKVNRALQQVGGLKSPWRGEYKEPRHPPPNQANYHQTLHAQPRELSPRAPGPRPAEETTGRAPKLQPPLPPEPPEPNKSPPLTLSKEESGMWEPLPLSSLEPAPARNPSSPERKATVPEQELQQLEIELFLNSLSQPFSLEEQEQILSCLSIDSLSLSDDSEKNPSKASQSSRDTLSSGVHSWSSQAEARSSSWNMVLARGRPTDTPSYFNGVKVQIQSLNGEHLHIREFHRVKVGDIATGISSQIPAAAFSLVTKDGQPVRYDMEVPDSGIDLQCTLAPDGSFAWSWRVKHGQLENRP

Row | SMILES | IC50 ([1]; Homo sapiens, KMS-12-BM, 96 h) [nM] | melting point [°C] | IC50 [2] [nM] | IC50 ([3]; Homo sapiens, JJN-3, 96 h) [nM] | IC50 [1] [nM] | IC50 [3] [nM]
1 | CN1CCCC(Oc2ccc(Cl)cc2Nc2nccc(-c3cc(C#N)c4c(c3)C(C)(CO)CN4)n2)C1 (mixture of isomers) [Compound 39] | 2340 | 173 | 7.4 | 87 |  | 
2 | COc1cc(C(=O)NC2CNCC2O)c(Cl)cc1Nc1nccc(-c2cc(C#N)c3c(c2)C(C)(C)CN3)n1 (mixture of isomers) [Compound 124] | 437 |  | 1.6 | 525 |  | 
3 | COc1cc(C(=O)N2CC[C@@H]3CNC[C@@H]32)c(Cl)cc1Nc1nccc(-c2cc(C#N)c3c(c2)C(C)(C)CN3)n1 (relative stereo) [Compound 122] | ~4470 |  | 4.7 | 35 |  | 
4 | Cc1ccc(C#N)cc1Nc1nccc(-c2cc(C#N)c3c(c2)C(C)(CO)CN3)n1 (stereo not drawn) [Compound 26] | > 10000 | 195 | 3.7 | 255 |  | 
5 | Cc1ccc(Cl)cc1Nc1nccc(-c2cc(C#N)c3c(c2)C(C)(CO)CN3)n1 (stereo not drawn) [Compound 27] | > 10000 | 289 | 9.2 | 106 |  | 
6 | CC1(CO)CNc2c(C#N)cc(-c3ccnc(Nc4cc(Cl)ccc4Cl)n3)cc21 (stereo not drawn) [Compound 29] | > 10000 | 210 | 17.4 | 166 |  | 
7 | COc1ccc(C(F)(F)F)cc1Nc1nccc(-c2cc(C#N)c3c(c2)C(C)(CO)CN3)n1 (stereo not drawn) [Compound 30] | > 10000 | 224 | 51.3 | > 10000 |  | 
8 | COCCOc1cc(C2CCOCC2)ccc1Nc1nccc(-c2cc(C#N)c3c(c2)[C@@](C)(CO)CN3)n1 [Compound 61] | > 10000 |  | 11 | 186 |  | 
9 | C[C@]1(CO)CNc2c(C#N)cc(-c3ccnc(Nc4ccccc4P(C)(C)=O)n3)cc21 [Compound 62] |  | 228 | 912 |  |  | 
10 | CC(C)Oc1ccc(C(F)(F)F)cc1Nc1nccc(-c2cc(C#N)c3c(c2)C(C)(CO)CN3)n1 (stereo not drawn) [Compound 76] | > 10000 |  | 186 | 2340 |  | 
11 | COC(=O)c1cc(Nc2nccc(-c3cc(C#N)c4c(c3)C(C)(CO)CN4)n2)cc(C(F)(F)F)c1 (stereo not drawn) [Compound 77] | ~2460 |  | 46.8 | 126 |  | 
12 | COCc1cc(OC)c(Nc2nccc(-c3cc(C#N)c4c(c3)C(C)(C)CN4)n2)cc1Cl [Compound 88] | > 10000 |  | 85.1 | 178 |  | 
13 | COCCN1CCN(c2cc(OC)c(Nc3nccc(-c4cc(C#N)c5c(c4)C(C)(C)CN5)n3)cc2Cl)CC1 [Compound 89] | > 10000 |  | 20.9 | ~100 |  | 
14 | CC1(C)CNc2c(C#N)cc(-c3ccnc(Nc4cc(Cl)ccc4S(C)(=O)=O)n3)cc21 [Compound 90] | > 10000 |  | 219 | > 10000 |  | 
15 | CCN1CCN(c2cc(C)c(Nc3nccc(-c4cc(C#N)c5c(c4)C(C)(C)CN5)n3)cc2Cl)CC1 [Compound 91] | > 10000 |  | 7.2 | ~107 |  | 
16 | COc1cc(N2CCC(OC)CC2)c(Cl)cc1Nc1nccc(-c2cc(C#N)c3c(c2)C(C)(C)CN3)n1 [Compound 92] | > 10000 |  | 138 | 389 |  | 

Row | SMILES | IC50 ([1]; Homo sapiens, KMS-12-BM, 96 h) [nM] | melting point [°C] | IC50 [2] [nM] | IC50 ([3]; Homo sapiens, JJN-3, 96 h) [nM] | IC50 [1] [nM] | IC50 [3] [nM]
17 | COc1cc(N2CCN(C(C)C)CC2)c(Cl)cc1Nc1nccc(-c2cc(C#N)c3c(c2)C(C)(C)CN3)n1 [Compound 93] | > 10000 |  | 11.5 | 83 |  | 
18 | COCCN1CCC(c2cc(OC)c(Nc3nccc(-c4cc(C#N)c5c(c4)C(C)(C)CN5)n3)cc2C)CC1 [Compound 94] | > 10000 |  | 9.8 | 166 |  | 
19 | COc1cc(OCCN2CCN(C)CC2)c(Cl)cc1Nc1nccc(-c2cc(C#N)c3c(c2)C(C)(C)CN3)n1 [Compound 95] | > 10000 |  | 9.3 | 129 |  | 
20 | COc1cc(S(C)(=O)=O)c(F)cc1Nc1nccc(-c2cc(C#N)c3c(c2)C(C)(C)CN3)n1 [Compound 96] | > 10000 |  | 9.1 | ~81 |  | 
21 | COc1cc(N2CCC(O)C2)c(Cl)cc1Nc1nccc(-c2cc(C#N)c3c(c2)C(C)(C)CN3)n1 (stereo not drawn) [Compound 97] | 4360 |  | 45.7 | 59 |  | 
22 | COc1cc(N2CCN(C3CC3)CC2)c(Cl)cc1Nc1nccc(-c2cc(C#N)c3c(c2)C(C)(C)CN3)n1 [Compound 98] | > 10000 |  | 129 | 105 |  | 
23 | CNCCOc1ccc(Cl)cc1Nc1nccc(-c2cc(C#N)c3c(c2)C(C)(C)CN3)n1 [Compound 109] |  | 152 | 53.7 | 676 |  | 
24 | COc1cc(C(=O)N2CC(O)C2)c(Cl)cc1Nc1nccc(-c2cc(C#N)c3c(c2)C(C)(C)CN3)n1 [Compound 110] | > 10000 |  | 4.2 | 193 |  | 
25 | COc1cc(C(=O)NC2CCC(O)C2)c(Cl)cc1Nc1nccc(-c2cc(C#N)c3c(c2)C(C)(C)CN3)n1 (stereo not drawn) [Compound 115] | > 10000 |  | 4.9 | 166 |  | 
26 | COc1cc(C(=O)NC2CCC(O)C2)c(Cl)cc1Nc1nccc(-c2cc(C#N)c3c(c2)C(C)(C)CN3)n1 (stereo not drawn) [Compound 116] |  |  | 6.8 |  | > 10000 | 162
27 | COc1cc(C(=O)N2CC3C(CO)C3C2)c(Cl)cc1Nc1nccc(-c2cc(C#N)c3c(c2)C(C)(C)CN3)n1 (stereo not drawn) [Compound 117] | 1550 |  | 4.7 | 19 |  | 
28 | COc1cc(C(=O)NC2CC(F)(F)C2)c(Cl)cc1Nc1nccc(-c2cc(C#N)c3c(c2)C(C)(C)CN3)n1 [Compound 118] | > 10000 |  | 25.7 | 933 |  | 
29 | COc1cc(C(=O)N2CCCC(O)CC2)c(Cl)cc1Nc1nccc(-c2cc(C#N)c3c(c2)C(C)(C)CN3)n1 (stereo not drawn) [Compound 119] | 1380 |  | 7.1 | 28 |  | 
30 | COc1cc(C(=O)N2CC3CC(C2)C3O)c(Cl)cc1Nc1nccc(-c2cc(C#N)c3c(c2)C(C)(C)CN3)n1 (stereo not drawn) [Compound 120] | > 10000 |  | 15.5 | 25 |  | 
31 | CNC(=O)c1ccc(C)c(Nc2ncnc(-c3cc(C#N)c4c(c3)[C@@](C)(CO)CN4)n2)c1 [Compound 214] |  | 252 | 6.9 |  |  | 
